Laboratory results reported in the kinase profiling compilation of Christmann-Franck et al. (2016).

How the values were obtained:
Experiment in all cases: SelectScreen, TR FRET
[1] = biological target: PRKAA1 PRKAB1 PRKAG1 (human) (UniProt P54619+Q13131+Q9Y478); settings: compound 0.1 µM
MAP3K8 (human) = MAP3K8 (human) (UniProt P41279)
HCK (human) = HCK (human) (UniProt P08631)
MAPK8 (human) = MAPK8 (human) (UniProt P45983)
MAPK13 (human) = MAPK13 (human) (UniProt O15264)
SYK (human) = SYK (human) (UniProt P43405)
MAPK9 (human) = MAPK9 (human) (UniProt P45984)
Sequence of MAPK9 (human) (P45984 whole entry, looked up): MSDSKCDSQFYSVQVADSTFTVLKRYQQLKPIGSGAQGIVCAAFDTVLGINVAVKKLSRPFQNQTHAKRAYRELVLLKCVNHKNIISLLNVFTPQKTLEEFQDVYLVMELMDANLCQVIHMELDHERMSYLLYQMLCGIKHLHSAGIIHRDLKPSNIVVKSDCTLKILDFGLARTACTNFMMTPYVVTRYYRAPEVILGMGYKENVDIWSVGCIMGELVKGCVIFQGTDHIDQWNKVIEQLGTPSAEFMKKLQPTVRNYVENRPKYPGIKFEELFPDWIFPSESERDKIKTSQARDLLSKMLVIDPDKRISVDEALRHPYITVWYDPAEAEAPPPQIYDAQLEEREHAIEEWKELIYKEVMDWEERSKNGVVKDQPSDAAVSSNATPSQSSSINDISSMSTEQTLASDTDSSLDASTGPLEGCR

GRK4 (human) = GRK4 (human) (UniProt P32298)
Sequence of GRK4 (human) (P32298 whole entry, looked up): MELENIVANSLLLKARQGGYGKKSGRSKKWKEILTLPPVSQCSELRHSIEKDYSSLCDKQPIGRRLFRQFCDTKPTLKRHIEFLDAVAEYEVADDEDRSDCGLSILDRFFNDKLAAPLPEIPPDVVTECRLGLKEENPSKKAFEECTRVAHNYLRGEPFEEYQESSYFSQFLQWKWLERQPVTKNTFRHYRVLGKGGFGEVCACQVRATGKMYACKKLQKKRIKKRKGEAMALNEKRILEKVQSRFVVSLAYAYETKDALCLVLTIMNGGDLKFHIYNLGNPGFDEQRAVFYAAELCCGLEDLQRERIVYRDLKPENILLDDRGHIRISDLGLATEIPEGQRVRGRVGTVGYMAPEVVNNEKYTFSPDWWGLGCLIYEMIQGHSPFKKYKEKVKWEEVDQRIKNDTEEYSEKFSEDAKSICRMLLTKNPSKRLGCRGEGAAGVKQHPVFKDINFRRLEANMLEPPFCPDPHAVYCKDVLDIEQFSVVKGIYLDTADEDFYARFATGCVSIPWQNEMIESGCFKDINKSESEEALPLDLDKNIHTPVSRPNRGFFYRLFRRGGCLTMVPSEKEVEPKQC

ABL1 (human) = ABL1 (human) (UniProt P00519)
Sequence of ABL1 (human) (P00519 whole entry, looked up): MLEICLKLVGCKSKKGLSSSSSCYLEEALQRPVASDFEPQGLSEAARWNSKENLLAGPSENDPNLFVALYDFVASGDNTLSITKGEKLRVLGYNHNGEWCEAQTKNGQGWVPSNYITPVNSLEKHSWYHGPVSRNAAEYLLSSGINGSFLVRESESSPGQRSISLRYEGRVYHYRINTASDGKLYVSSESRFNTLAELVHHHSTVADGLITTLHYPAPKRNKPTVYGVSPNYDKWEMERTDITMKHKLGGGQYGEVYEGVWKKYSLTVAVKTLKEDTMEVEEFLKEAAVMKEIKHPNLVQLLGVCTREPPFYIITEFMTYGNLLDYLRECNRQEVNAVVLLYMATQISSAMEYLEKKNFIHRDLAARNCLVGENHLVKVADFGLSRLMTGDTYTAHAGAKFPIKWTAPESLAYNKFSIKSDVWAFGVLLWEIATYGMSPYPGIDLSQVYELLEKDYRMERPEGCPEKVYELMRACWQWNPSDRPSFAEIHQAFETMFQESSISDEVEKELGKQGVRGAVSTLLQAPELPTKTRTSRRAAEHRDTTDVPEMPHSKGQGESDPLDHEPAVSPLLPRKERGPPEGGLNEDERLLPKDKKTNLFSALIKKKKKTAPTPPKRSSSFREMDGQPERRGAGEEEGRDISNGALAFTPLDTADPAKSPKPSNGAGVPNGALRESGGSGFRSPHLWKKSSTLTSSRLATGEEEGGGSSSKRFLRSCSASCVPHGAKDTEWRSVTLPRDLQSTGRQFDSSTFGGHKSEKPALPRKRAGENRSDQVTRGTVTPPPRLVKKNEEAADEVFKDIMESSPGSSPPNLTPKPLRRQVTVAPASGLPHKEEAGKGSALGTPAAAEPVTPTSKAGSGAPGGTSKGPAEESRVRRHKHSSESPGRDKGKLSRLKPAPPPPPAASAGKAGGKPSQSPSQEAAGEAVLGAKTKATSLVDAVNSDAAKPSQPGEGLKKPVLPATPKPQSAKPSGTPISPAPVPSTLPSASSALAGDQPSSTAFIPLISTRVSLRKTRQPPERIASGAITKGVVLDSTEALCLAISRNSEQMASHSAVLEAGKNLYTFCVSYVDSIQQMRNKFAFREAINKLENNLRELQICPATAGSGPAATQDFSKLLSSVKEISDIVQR

ROCK2 (human) = ROCK2 (human) (UniProt O75116)
CAMK4 (human) = CAMK4 (human) (UniProt Q16566)
Sequence of CAMK4 (human) (Q16566 whole entry, looked up): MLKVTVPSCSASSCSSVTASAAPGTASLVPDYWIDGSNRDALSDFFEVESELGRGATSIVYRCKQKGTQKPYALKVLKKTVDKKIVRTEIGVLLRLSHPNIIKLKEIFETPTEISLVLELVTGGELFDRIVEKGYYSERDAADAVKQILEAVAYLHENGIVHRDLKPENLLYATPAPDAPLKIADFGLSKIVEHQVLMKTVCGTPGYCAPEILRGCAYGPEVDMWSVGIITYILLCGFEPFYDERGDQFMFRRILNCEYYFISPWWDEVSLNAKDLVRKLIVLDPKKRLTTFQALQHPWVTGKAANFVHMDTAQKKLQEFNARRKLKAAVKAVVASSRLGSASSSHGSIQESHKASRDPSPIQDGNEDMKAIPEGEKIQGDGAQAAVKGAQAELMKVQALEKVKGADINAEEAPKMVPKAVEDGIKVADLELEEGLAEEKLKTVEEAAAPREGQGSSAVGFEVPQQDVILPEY

TEK (human) = TEK (human) (UniProt Q02763)
FGFR2 (human) = FGFR2 (human) (UniProt P21802)
Sequence of FGFR2 (human) (P21802 whole entry, looked up): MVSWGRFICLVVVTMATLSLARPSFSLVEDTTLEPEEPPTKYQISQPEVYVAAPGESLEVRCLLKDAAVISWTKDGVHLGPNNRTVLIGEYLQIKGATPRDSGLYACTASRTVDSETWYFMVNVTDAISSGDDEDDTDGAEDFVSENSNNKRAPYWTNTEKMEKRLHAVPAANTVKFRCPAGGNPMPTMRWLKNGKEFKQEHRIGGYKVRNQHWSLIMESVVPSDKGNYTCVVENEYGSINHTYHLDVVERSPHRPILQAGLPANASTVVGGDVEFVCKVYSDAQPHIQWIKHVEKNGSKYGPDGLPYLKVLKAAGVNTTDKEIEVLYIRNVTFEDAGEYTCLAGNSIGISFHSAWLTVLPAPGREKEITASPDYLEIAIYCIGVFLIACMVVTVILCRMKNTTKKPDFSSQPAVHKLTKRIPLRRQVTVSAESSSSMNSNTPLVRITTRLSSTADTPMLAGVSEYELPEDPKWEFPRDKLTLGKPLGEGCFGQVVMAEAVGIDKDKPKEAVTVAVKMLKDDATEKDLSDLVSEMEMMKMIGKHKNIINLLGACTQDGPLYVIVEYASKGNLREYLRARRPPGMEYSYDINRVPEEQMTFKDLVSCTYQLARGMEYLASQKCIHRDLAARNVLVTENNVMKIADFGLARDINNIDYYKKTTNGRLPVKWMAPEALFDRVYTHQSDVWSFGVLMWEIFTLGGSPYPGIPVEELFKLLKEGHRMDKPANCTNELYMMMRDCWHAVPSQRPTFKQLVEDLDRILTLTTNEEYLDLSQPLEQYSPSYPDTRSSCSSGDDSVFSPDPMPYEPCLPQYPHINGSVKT

CLK2 (human) = CLK2 (human) (UniProt P49760)
Sequence of CLK2 (human) (P49760 whole entry, looked up): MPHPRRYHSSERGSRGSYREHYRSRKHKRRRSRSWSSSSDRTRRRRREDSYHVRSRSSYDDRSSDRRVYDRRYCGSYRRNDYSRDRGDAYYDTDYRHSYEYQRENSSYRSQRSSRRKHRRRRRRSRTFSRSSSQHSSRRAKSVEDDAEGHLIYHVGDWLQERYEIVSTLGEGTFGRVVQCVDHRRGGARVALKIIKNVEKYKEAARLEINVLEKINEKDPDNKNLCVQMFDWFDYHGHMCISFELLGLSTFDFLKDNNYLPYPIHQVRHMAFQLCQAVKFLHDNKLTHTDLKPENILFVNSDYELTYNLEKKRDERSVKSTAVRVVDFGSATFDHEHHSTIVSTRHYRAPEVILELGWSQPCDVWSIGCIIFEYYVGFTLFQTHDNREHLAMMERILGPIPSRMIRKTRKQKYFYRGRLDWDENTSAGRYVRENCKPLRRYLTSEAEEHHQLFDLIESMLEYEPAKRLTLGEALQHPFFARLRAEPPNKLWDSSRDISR

EPHA8 (human) = EPHA8 (human) (UniProt P29322)

Sequence of MAPK13 (human) (O15264 whole entry, looked up): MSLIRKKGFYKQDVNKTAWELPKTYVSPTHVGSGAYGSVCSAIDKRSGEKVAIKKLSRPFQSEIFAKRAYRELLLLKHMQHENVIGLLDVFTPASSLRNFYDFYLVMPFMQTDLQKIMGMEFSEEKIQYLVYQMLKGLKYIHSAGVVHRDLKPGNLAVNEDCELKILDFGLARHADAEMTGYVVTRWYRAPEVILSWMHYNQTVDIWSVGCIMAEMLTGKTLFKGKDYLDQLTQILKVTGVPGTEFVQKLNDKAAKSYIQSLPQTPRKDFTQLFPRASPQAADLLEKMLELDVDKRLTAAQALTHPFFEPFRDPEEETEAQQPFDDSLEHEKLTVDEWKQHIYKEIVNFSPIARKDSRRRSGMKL
Sequence of MAP3K8 (human) (P41279 whole entry, looked up): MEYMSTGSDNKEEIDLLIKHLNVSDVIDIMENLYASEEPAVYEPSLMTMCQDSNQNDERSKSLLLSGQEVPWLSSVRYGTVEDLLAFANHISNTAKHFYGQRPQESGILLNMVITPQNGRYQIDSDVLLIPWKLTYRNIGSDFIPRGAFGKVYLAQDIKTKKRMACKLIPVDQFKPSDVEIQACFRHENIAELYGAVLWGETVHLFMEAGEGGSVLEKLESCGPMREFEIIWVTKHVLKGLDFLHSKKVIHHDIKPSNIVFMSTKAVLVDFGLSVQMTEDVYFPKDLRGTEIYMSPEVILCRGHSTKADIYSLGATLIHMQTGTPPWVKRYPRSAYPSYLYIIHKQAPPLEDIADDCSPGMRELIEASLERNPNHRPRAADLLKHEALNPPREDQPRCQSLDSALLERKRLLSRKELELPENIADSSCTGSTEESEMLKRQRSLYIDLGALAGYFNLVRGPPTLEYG

Cn1cc(-c2cnc3ccc4ccc(CC(=O)NCc5ccccn5)cc4c(=O)c3c2)cn1
inhibition [1]: 2.1% | inhibition (MAP3K8 (human); compound 0.1 µM): 28% | inhibition (MAP3K8 (human); compound 1.0 µM): 23.4% | inhibition (MAP3K8 (human); compound 10.0 µM): 12.9% | inhibition (HCK (human); compound 0.1 µM): 16.7% | inhibition (HCK (human); compound 1.0 µM): 19.1% | inhibition (HCK (human); compound 10.0 µM): 51.8% | inhibition (MAPK8 (human); compound 0.1 µM): 2.8% | inhibition (MAPK8 (human); compound 1.0 µM): 0.1% | inhibition (MAPK8 (human); compound 10.0 µM): 6.2% | inhibition (MAPK13 (human); compound 0.1 µM): 14.5% | inhibition (MAPK13 (human); compound 1.0 µM): 15.8% | inhibition (MAPK13 (human); compound 10.0 µM): 10% | inhibition (SYK (human); compound 0.1 µM): 19.9% | inhibition (SYK (human); compound 1.0 µM): 13.2% | inhibition (SYK (human); compound 10.0 µM): 61.6% | inhibition (MAPK9 (human); compound 0.1 µM): -1.5% | inhibition (MAPK9 (human); compound 1.0 µM): 3.7% | inhibition (MAPK9 (human); compound 10.0 µM): 10.8% | inhibition (GRK4 (human); compound 0.1 µM): 12.9% | inhibition (GRK4 (human); compound 1.0 µM): 11.9% | inhibition (GRK4 (human); compound 10.0 µM): 37.1% | inhibition (ABL1 (human); compound 0.1 µM): 19.9% | inhibition (ABL1 (human); compound 1.0 µM): 14.1% | inhibition (ABL1 (human); compound 10.0 µM): 81.7% | inhibition (ROCK2 (human); compound 0.1 µM): -1.9% | inhibition (ROCK2 (human); compound 1.0 µM): -0.2% | inhibition (ROCK2 (human); compound 10.0 µM): -5.8% | inhibition (CAMK4 (human); compound 0.1 µM): 13.6% | inhibition (CAMK4 (human); compound 1.0 µM): 10.4% | inhibition (CAMK4 (human); compound 10.0 µM): 0.8% | inhibition (TEK (human); compound 0.1 µM): -0.9% | inhibition (TEK (human); compound 1.0 µM): 4.6% | inhibition (TEK (human); compound 10.0 µM): 45.3% | inhibition (FGFR2 (human); compound 0.1 µM): 14.2% | inhibition (FGFR2 (human); compound 1.0 µM): 33.5% | inhibition (FGFR2 (human); compound 10.0 µM): 74% | inhibition (CLK2 (human); compound 0.1 µM): 9.2% | inhibition (CLK2 (human); compound 1.0 µM): 22.8% | inhibition (CLK2 (human); compound 10.0 µM): 69.8% | inhibition (EPHA8 (human); compound 0.1 µM): 5.4% | inhibition (EPHA8 (human); compound 1.0 µM): 6.4% | inhibition (EPHA8 (human); compound 10.0 µM): 24.3%
